Molecular target: T1, LYN B (Homo sapiens, UniProt P07948)
T1 construct: purchased Thermo Fisher Scientific (Life Technologies) SelectScreen
Test: SelectScreen Z'LYTE
Type: biochemical
Method: The in vitro kinase selectivity of NU5455 was determined using the SelectScreen Broad Assay Panel (Thermo Fisher Scientific) involving activity and binding assays (Supplemental Table 1). […] Class IA PI3Ks were measured using the p85α subunit.
Kinase [ATP] % Assay Kinase [ATP] % Assay Kinase [ATP] % Assay Kinase [ATP] % Assay […]
CHEK1 (CHK1) Km app 9.3 Z LYN B Km app 3.0 Z TGFBR2 n/a -0.1 L PDGFRA D842V Km app -5.0 Z […]
SGK (SGK1) Km app 8.5 Z MAP4K2 (GCK) Km app 2.7 Z TLK2 n/a -0.3 L STK38 (NDR) n/a -5.9 L
MERTK (cMER) Km app 8.3 Z CDK2/cyclin A Km app 2.7 Z TGFBR1 (ALK5) n/a -0.4 L MATK (HYL) Km app -6.3 Z
FYN Km app 8.3 Z EPHA1 Km app 2.7 Z CLK3 Km app -0.5 Z ABL1 E255K Km app -6.6 Z
TEC n/a 8.1 L CDK2/cyclin E1 n/a 2.7 L MAP3K14 (NIK) n/a -0.5 L STK17A (DRAK1) n/a -6.6 L
KIT V654A n/a 8.1 L TESK2 n/a 2.7 L AKT3 (PKB gamma) Km app -0.5 Z JAK2 JH1 JH2 Km app -6.7 Z
ROS1 Km app 8.0 Z SPHK1 Km app 2.7 A MAP3K9 (MLK1) Km app -0.5 Z PRKACB (PRKAC beta) n/a -6.8 L
FGFR3 K650E Km app 7.9 Z AMPK A2/B1/G1 Km app 2.6 Z IKBKB (IKK beta) Km app -0.6 Z PDGFRA (PDGFR alpha) Km app -6.8 Z
RAF1 (cRAF) Y340D Y341D 100 7.9 Z DYRK3 Km app 2.6 Z CAMK2A (CaMKII alpha) Km app -0.6 Z NEK9 Km app -7.2 Z
PI4KA (PI4K alpha) 10 7.8 A CSNK1D (CK1 delta) Km app 2.6 Z PRKCB1 (PKC beta I) Km app -0.7 Z PDK1 Km app -7.3 Z
HIPK2 Km app 7.8 Z ACVR2A n/a 2.5 L TTK n/a -0.7 L RPS6KB1 (p70S6K) Km app -7.8 Z […]

T1 sequence (P07948 1-491 isoform P07948-2): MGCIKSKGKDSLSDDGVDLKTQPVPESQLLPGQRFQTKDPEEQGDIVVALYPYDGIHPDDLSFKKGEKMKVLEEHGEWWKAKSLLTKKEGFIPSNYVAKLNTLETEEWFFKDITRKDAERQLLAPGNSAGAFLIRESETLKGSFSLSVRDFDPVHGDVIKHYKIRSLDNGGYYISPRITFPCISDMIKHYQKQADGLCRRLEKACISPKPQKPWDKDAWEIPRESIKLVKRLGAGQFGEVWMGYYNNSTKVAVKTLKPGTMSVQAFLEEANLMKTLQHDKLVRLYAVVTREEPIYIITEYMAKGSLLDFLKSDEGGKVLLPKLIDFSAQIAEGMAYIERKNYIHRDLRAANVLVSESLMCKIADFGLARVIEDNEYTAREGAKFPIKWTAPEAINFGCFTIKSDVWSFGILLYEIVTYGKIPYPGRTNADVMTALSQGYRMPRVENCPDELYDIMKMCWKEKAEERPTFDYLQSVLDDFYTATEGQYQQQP

## CN(C(=O)CN1CCOCC1)c1ccc2sc3c(-c4cccc5c(=O)cc(N6CC7CCC(C6)O7)oc45)cccc3c2c1 [NU5455]
  inhibition at 1 µM: 3%
